According to patent US8735425B2, “Tetrahydroisoquinoline derivative” (Daiichi Sankyo Company, Limited, priority 2008, dated 2014):

How the values were obtained:
[1] = target: T1, DGAT1 enzyme (Homo sapiens, UniProt O75907); experiment: DGAT1 inhibitory activity test; assay type: biochemical; settings: test compound concentration of 0.05 μg/ml; read-out: Inhibitory Rate
T1 construct: made in house
T1 sequence (O75907 1-488): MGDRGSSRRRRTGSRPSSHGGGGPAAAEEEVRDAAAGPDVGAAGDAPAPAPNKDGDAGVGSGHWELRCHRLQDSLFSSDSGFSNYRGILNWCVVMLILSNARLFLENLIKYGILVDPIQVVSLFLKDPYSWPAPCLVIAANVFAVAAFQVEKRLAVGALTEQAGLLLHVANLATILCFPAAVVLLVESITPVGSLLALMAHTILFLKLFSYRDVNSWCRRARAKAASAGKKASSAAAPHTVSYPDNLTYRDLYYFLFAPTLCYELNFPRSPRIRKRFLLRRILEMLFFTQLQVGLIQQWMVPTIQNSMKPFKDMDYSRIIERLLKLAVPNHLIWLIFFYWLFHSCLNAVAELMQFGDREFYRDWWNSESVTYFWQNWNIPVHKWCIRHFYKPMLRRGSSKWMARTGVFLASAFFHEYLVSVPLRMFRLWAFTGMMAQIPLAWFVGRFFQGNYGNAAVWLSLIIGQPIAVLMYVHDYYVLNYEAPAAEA
Method: DGAT1 enzyme was prepared and stored according to the method described in US2007/0249620.
(2) DGAT1 Inhibitory Activity Test
A reaction solution having the following composition was incubated at room temperature (23° C.) for 30 minutes: 175 mM Tris-HCl (pH 8.0), 8 mM MgCl2, 1 mg/ml BSA, 0.3 mM 1,2-dioleoyl-sn-glycerol (10-fold concentration of EtOH solution, 10% added), 10 μM [^14C]-oleoyl-CoA (approximately 50 mCi/mmol), 0.5% Triton X-100, the DGAT1 enzyme (10 μg) obtained in Test Example 1(1), and a test compound or vehicle (DMSO/MeOH, 7:3 solution, 5% added), […] in total. A reaction stop solution ([…] consisting of isopropanol/1-heptane/water (80:20:2, v/v/v) was added to the reaction solution and stirred. Subsequently, water (30 μl) and 1-heptane (100 μl) were added thereto and stirred. The 1-heptane layer (50 μl) was spotted onto a TLC plate and developed with a developing solvent consisting of 1-hexane/diethyl ether/acetic acid (85:15:1, v/v/v). The radioactivity of the triglyceride fraction was quantified using BAS2000 Bio Image Analyzer (FUJIFILM) and compared with the control. The inhibitory activity of the test compound was calculated according to the formula shown below. In this context, the radioactivity at no reaction (0 minute incubation) was used as background. Inhibitory Rate=100−[(Radioactivity of sample supplemented with test compound)−(Background)]/[(Radioactivity of control)−(Background)]×100

[2] = tested on: Male C57BL/6N mice; experiment: Triglyceride absorption suppression after fat loading (in vivo DGAT1 inhibitory effect); settings: Mus musculus, po; dose of 10 mg/kg or lower, orally administered, mice fasted overnight, plasma triglyceride after fat loading; read-out: Triglyceride absorption suppressive activity
Method: The DGAT1 enzyme is important for the digestion and absorption of triglycerides, and the inhibition of DGAT1 in the small intestine suppresses the absorption of triglycerides. The in vivo activity of its DGAT1 inhibitory effect was evaluated with the suppressed absorption of triglycerides after fat loading as an index. Male C57BL/6N mice (7-12 weeks old, body weight: 17-25 g, Charles River Laboratories Japan Inc.) fasted overnight were assigned to Vehicle group 1, Vehicle group 2, and each test compound group, to which a vehicle (0.5% methylcellulose) or each test compound (1 to 10 mg/kg) suspended in vehicle was orally administered (5 mL/kg). After a given time, a lipoprotein lipase inhibitor (Pluronic-F127: Sigma-Aldrich Corp., 1 g/kg, 20% by weight dissolved in saline) was intraperitoneally administered (5 mL/kg) to each group. Immediately thereafter, distilled water for the Vehicle group 1 or a 20% fat-containing emulation (Intralipid 20%: TERUMO CORP., Japan) for the Vehicle group 2 and the compound groups were orally administered thereto (0.2 mL/mouse). After a given time of 1 to 4 hours after administration, blood was collected from the tail vein or the right ventricle, and plasma was immediately separated and collected. Then, the triglyceride concentration in plasma was measured using a commercially available kit (Triglyceride E-Test Wako: Wako Pure Chemical Industries, Ltd.). In this method, the administration of the lipoprotein lipase inhibitor suppresses the hydrolysis of triglycerides in the blood such that the triglycerides are accumulated in the blood. These triglycerides are derived from two origins: exogenous triglycerides absorbed in the gastrointestinal tract and endogenous triglycerides released from the liver. The triglyceride absorption suppressive activity of each test compound was calculated based on the equation shown below by removing the influence of the endogenous triglycerides. In this context, each test compound was separately confirmed to have no influence on the concentration of the endogenous triglycerides.
Triglyceride absorption suppressive activity (%)=100−[(Triglyceride concentration of each test compound group)−(Triglyceride concentration of Vehicle group 1)]/[(Triglyceride concentration of Vehicle group 2)−(Triglyceride concentration of Vehicle group 1)]×100

Row | SMILES | inhibition at 0.05 µg/mL [1] | inhibition in vivo at up to 10 mg/kg [2]
1 | COc1ccc(F)cc1NC(=O)Nc1ccc2c(c1)CCN(C(=O)O[C@H]1CC[C@H](CC(=O)O)CC1)C2 [Example 22, trans-6-[3-(5-fluoro-2-methoxy-phenyl)-ureido]-3,4-dihydro-1H-isoquinoline-2-carboxylic acid 4-carboxymethyl-cyclohexyl ester] | ≥ 50% | ≥ 60%
2 | COc1ccc(C)cc1NC(=O)Nc1ccc2c(c1)CCN(C(=O)O[C@H]1CC[C@H](CC(=O)O)CC1)C2 [Example 23, trans-6-[3-(2-methoxy-5-methyl-phenyl)-ureido]-3,4-dihydro-1H-isoquinoline-2-carboxylic acid 4-carboxymethyl-cyclohexyl ester] | ≥ 50% | ≥ 60%
3 | CCOc1ccccc1NC(=O)Nc1ccc2c(c1)CCN(C(=O)O[C@H]1CC[C@H](CC(=O)O)CC1)C2 [Example 26, trans-6-[3-(2-ethoxy-phenyl)-ureido]-3,4-dihydro-1H-isoquinoline-2-carboxylic acid 4-carboxymethyl-cyclohexyl ester] | ≥ 50% | ≥ 60%
4 | CC(C)c1ccccc1NC(=O)Nc1ccc2c(c1)CCN(C(=O)O[C@H]1CC[C@H](CC(=O)O)CC1)C2 [Example 28, trans-6-[3-(2-isopropyl-phenyl)-ureido]-3,4-dihydro-1H-isoquinoline-2-carboxylic acid 4-carboxymethyl-cyclohexyl ester] | ≥ 50% | ≥ 60%
5 | CC(C)c1cccc(NC(=O)Nc2ccc3c(c2)CCN(C(=O)O[C@H]2CC[C@H](CC(=O)O)CC2)C3)c1 [Example 29, trans-6-[3-(3-isopropyl-phenyl)-ureido]-3,4-dihydro-1H-isoquinoline-2-carboxylic acid 4-carboxymethyl-cyclohexyl ester] | ≥ 50% | ≥ 60%
6 | O=C(O)C[C@H]1CC[C@H](OC(=O)N2CCc3cc(NC(=O)Nc4cc(F)c(F)c(F)c4)ccc3C2)CC1 [Example 32, trans-6-[3-(3,4,5-trifluoro-phenyl)-ureido]-3,4-dihydro-1H-isoquinoline-2-carboxylic acid 4-carboxymethyl-cyclohexyl ester] | ≥ 50% | ≥ 60%
7 | O=C(Nc1ccc2c(c1)CCN(C(=O)O[C@H]1CC[C@H](Cc3cc(O)no3)CC1)C2)Nc1ccccc1F [Example 43, trans-6-[3-(2-fluoro-phenyl)-ureido]-3,4-dihydro-1H-isoquinoline-2-carboxylic acid 4-(3-hydroxy-isoxazol-5-ylmethyl)-cyclohexyl ester] | ≥ 50% | ≥ 60%
8 | O=C(Nc1ccc2c(c1)CCN(C(=O)O[C@H]1CC[C@H](CC(=O)OC[C@@H](O)CO)CC1)C2)Nc1ccccc1F [Example 45, trans-6-[3-(2-fluoro-phenyl)-ureido]-3,4-dihydro-1H-isoquinoline-2-carboxylic acid 4-((S)-2,3-dihydroxy-propoxycarbonylmethyl)-cyclohexyl ester] | ≥ 50% | ≥ 60%
9 | CCOc1ccc(C)cc1NC(=O)Nc1ccc2c(c1)CCN(C(=O)O[C@H]1CC[C@H](CC(=O)O)CC1)C2 [Example 48, trans-6-[3-(2-ethoxy-5-methyl-phenyl)-ureido]-3,4-dihydro-1H-isoquinoline-2-carboxylic acid 4-carboxymethyl-cyclohexyl ester] | ≥ 50% | ≥ 60%
10 | COc1cccc(NC(=O)Nc2ccc3c(c2)CCN(C(=O)O[C@H]2CC[C@H](CC(=O)O)CC2)C3)c1 [Example 49, trans-6-[3-(3-methoxy-phenyl)-ureido]-3,4-dihydro-1H-isoquinoline-2-carboxylic acid 4-carboxymethyl-cyclohexyl ester] | ≥ 50% | ≥ 60%

More lines, main results first:

Row | inhibition at 0.05 µg/mL [1] | SMILES | inhibition in vivo at up to 10 mg/kg [2]
11 | ≥ 50% | COc1ncccc1NC(=O)Nc1ccc2c(c1)CCN(C(=O)O[C@H]1CC[C@H](CC(=O)O)CC1)C2 [Example 24, trans-6-[3-(2-methoxy-pyridin-3-yl)-ureido]-3,4-dihydro-1H-isoquinoline-2-carboxylic acid 4-carboxymethyl-cyclohexyl ester] | ≥ 60%
12 | ≥ 50% | O=C(O)C[C@H]1CC[C@H](OC(=O)N2CCc3cc(Nc4nc5ccccc5o4)ccc3C2)CC1 [Example 25, trans-6-(benzoxazol-2-ylamino)-3,4-dihydro-1H-isoquinoline-2-carboxylic acid 4-carboxymethyl-cyclohexyl ester] | ≥ 60%
13 | ≥ 50% | CCOc1ccc(F)cc1NC(=O)Nc1ccc2c(c1)CCN(C(=O)O[C@H]1CC[C@H](CC(=O)O)CC1)C2 [Example 27, trans-6-[3-(2-ethoxy-5-fluoro-phenyl)-ureido]-3,4-dihydro-1H-isoquinoline-2-carboxylic acid 4-carboxymethyl-cyclohexyl ester] | ≥ 60%
14 | ≥ 50% | CC(C)Oc1cccc(NC(=O)Nc2ccc3c(c2)CCN(C(=O)O[C@H]2CC[C@H](CC(=O)O)CC2)C3)c1 [Example 30, trans-6-[3-(3-isopropoxy-phenyl)-ureido]-3,4-dihydro-1H-isoquinoline-2-carboxylic acid 4-carboxymethyl-cyclohexyl ester] | ≥ 60%
15 | ≥ 50% | O=C(O)C[C@H]1CC[C@H](OC(=O)N2CCc3cc(NC(=O)Nc4cc(F)c(F)cc4F)ccc3C2)CC1 [Example 31, trans-6-[3-(2,4,5-trifluoro-phenyl)-ureido]-3,4-dihydro-1H-isoquinoline-2-carboxylic acid 4-carboxymethyl-cyclohexyl ester] | ≥ 60%
16 | ≥ 50% | O=C(Nc1ccc2c(c1)CCN(C(=O)O[C@H]1CC[C@H](Cc3noc(=O)[nH]3)CC1)C2)Nc1ccccc1F [Example 41, trans-6-[3-(2-fluoro-phenyl)-ureido]-3,4-dihydro-1H-isoquinoline-2-carboxylic acid 4-(5-oxo-4,5-dihydro-[1,2,4]oxadiazol-3-ylmethyl)-cyclohexyl ester] | ≥ 60%
17 | ≥ 50% | O=C(Nc1ccc2c(c1)CCN(C(=O)O[C@H]1CC[C@H](Cc3nn[nH]n3)CC1)C2)Nc1ccccc1F [Example 44, trans-6-[3-(2-fluoro-phenyl)-ureido]-3,4-dihydro-1H-isoquinoline-2-carboxylic acid 4-(2H-tetrazol-5-ylmethyl)-cyclohexyl ester] | ≥ 60%
18 | ≥ 50% | O=C(O)C[C@H]1CC[C@H](OC(=O)N2CCc3cc(Nc4nc5ccc(Cl)cc5o4)ccc3C2)CC1 [Example 47, trans-6-(6-chloro-benzoxazol-2-ylamino)-3,4-dihydro-1H-isoquinoline-2-carboxylic acid 4-carboxymethyl-cyclohexyl ester] | ≥ 60%
